Laboratory results: patent US10092493B2, “Composition of skin external application for anti-aging” (AMOREPACIFIC CORPORATION, priority 2005, dated 2018)

Columns and labels:
[1] = molecular target: T1, PPAR-α (Peroxisome Proliferator Activated Receptor-alpha) (Homo sapiens, UniProt Q07869); assay: Activation of PPAR-α, luciferase reporter in CV-1 cells; type: cell-based; conditions: 24 hours, negative control and non-treated group = 1.0
T1 construct: expressed in transfected cells; host or cells: CV-1 monkey kidney epithelial cells (ATCC CCL 70)
T1 sequence (Q07869 1-468): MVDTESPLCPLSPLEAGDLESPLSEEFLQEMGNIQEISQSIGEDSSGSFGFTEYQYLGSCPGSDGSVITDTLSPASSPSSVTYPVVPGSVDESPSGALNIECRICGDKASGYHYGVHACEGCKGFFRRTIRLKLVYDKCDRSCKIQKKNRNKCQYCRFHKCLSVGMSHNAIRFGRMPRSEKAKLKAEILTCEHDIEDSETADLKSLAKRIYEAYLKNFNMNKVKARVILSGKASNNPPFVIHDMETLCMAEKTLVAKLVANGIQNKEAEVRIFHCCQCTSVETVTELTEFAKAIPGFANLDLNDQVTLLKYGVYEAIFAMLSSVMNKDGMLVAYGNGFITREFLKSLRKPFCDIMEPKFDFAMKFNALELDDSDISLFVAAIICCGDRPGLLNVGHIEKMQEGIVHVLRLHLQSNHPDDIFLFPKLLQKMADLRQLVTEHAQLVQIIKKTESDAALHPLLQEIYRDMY
Description: Monkey kidney epithelial cell line CV-1 (ATCC CCL 70) was subcultured in a DMEM medium containing 10% fetal bovine serum treated with charcol/dextran, which was a phenol red-free medium to remove the effect by estrogen of phenol red.
CV-1 cells were distributed in a 24-well plate type incubator at a concentration of 5×10^4. After 24 hours cultivation, the 3 different plasmids were transient transfected. After 24 hours cultivation, the plate was washed with 1×PBS (Phosphate Buffered Saline) and treated with ligand candidates at various concentrations. After 24 hours cultivation, the plate was washed with 1×PBS and the cells were lyzed with 1×PLB (Passive Lysis Buffer) and measured for luciferase activity using Dual-Luciferase® Reporter Assay System kit.

[2] = system: Tumor Necrosis Factor alpha (TNF-α); assay: Inhibition of TNF-α biosynthesis after UV irradiation (ELISA); type: cell-based; conditions: human keratinocytes, UV-B 30 mJ/cm^2, 10 μM (10 ppm of extract), 6 to 24 hours; UV control = 100
Description: Human keratinocytes were cultured in a 12-well plate type incubator at a concentration of 10^4. The plate was irradiated by UV-B at 30 mJ/cm^2. The media were exchanged with new medium containing 10 μM of each test substance (10 ppm of extract). After 6 to 24 hours of cultivation, the cells were harvested and subjected to ELISA (Pharmingen 555212) to determine the amount of produced tumor necrosis factor α (TNF-α). As the positive control, Wy-14,643 was used.

[3] = system: Type I Collagenase (MMP-1); assay: Inhibition of type I collagenase (MMP-1) biosynthesis after UV-A irradiation, test substances (ELISA); type: cell-based; conditions: new born human fibroblasts, UV-A 15 J/cm^2, 10 μM or 10 ppm, UV negative control = 100; for Type I collagenase biosynthesis (%), UV-A + TNF-α treated group: plus TNF-α 10 ng/ml
Description: To describe the experiment method in detail, human fibroblasts isolated from the skin of a new born baby were cultured in a 48-well plate type incubator at a concentration of 10^4. After 24 hours, the plate was irradiated by UV-A at 15 J/cm^2. […] At the second day of cultivation, the supernatants were harvested and subjected to ELISA (AP biotech RPN2610) to determine the amount of produced type I collagenase. As the positive control, Wy-14,643 and retinoic acid (RA) were used.

pro-collagen = assay: Biosynthesis of collagen (pro-collagen ELISA) in fibroblasts; type: cell-based, Human; conditions: 48 hours, un-treated control = 100
Description: Human fibroblasts were cultured in a 48-well plate type incubator at a concentration of 10^4. The media were exchanged with new medium (theanine: 1, 10, 100 um) containing each test substance of Table 7 at a concentration of 0.001 μM, 0.01 μM, 0.1 μM, 0.5 μM and 2 μM. After 48 hours of cultivation, each supernatant was harvested and subjected to ELISA (Takara MK101) to measure the amount of produced pro-collagen.
Also, in order to examine the synergic effect of theanine on collagen biosynthesis, theanine 10 μM was added to catechin at different 4 concentrations and the result is shown in Table 8.

laminin 10/11 = assay: Biosynthesis of laminin 10/11 in keratinocytes (Western Blot); type: cell-based; conditions: human keratinocytes, 10 ppm, 24 hours; control = 100
Description: Human keratinocytes were cultured in a 24-well plate type incubator at a concentration of 5×10^4. The media were exchanged with new medium containing 10 ppm of each test substance. After 24 hours of cultivation, each supernatant was harvested and subjected to the Western Blot method to measure the amount of produced laminin 10/11.

type VII collagen = assay: Biosynthesis of type VII collagen in fibroblasts (Dot Blot); type: cell-based; conditions: human fibroblasts, 10 ppm, 24 hours; control = 100
Description: The media were exchanged with new medium containing 10 ppm of each test substance. After 24 hours of cultivation, each supernatant was harvested and subjected to the Dot Blot method to measure the amount of produced type VII collagen.

MMP-2 = assay: Inhibition of MMP-2 biosynthesis after UV irradiation (gelatin zymography); type: cell-based; conditions: human keratinocytes, UV-B 30 mJ/cm^2, 10 ppm test substance, 2 days; UV control = 100
Description: (§1) After 24 hours, the plate was irradiated by UV-B at 30 mJ/cm^2. The media were exchanged with new medium containing 10 ppm of each test substance. After 2 days of cultivation, each supernatant was harvested and subjected to the zymography using gelatine gel to obtain produced MMP-2 and MMP-9, quantities of which were then measured by a densitometer.

type IV collagen = assay: Biosynthesis of type IV collagen in keratinocytes (Dot Blot); type: cell-based; conditions: human keratinocytes, 10 ppm, 24 hours; control = 100
Description: The media were exchanged with new medium containing 10 ppm of each test substance. After 24 hours of cultivation, each supernatant was harvested and subjected to the Dot Blot method to measure the amount of produced type IV collagen.

MMP-9 = assay: Inhibition of MMP-9 biosynthesis after UV irradiation (gelatin zymography); type: cell-based; conditions: human keratinocytes, UV-B 30 mJ/cm^2, 10 ppm test substance, 2 days; UV control = 100
Description: as §1

Structure (SMILES)	PPAR-α activity ([1]; 10 μM)	PPAR-α activity ([1]; 100 μM)	TNF-α biosynthesis (%) [2]	Type I collagenase biosynthesis (%), UV-A + TNF-α treated group [3]	Type I collagenase biosynthesis (%), UV-A irradiated group [3]	also measured
Oc1cc(O)c2c(c1)OC(c1ccc(O)c(O)c1)C(O)C2 (single isomer, unassigned; (-)) [(−) C, (−)catechin]	1.4	1.2	–	–	–	–
Oc1cc(O)c2c(c1)O[C@H](c1ccc(O)c(O)c1)[C@@H](O)C2 [(+) C, (+)catechin]	1.5	1.4	40%	86%	45%	–
Oc1cc(O)c2c(c1)O[C@@H](c1ccc(O)c(O)c1)[C@@H](O)C2 [(+) EC, (+)epicatechin]	1.3	1.2	–	–	–	–
Oc1cc(O)c2c(c1)O[C@H](c1ccc(O)c(O)c1)[C@H](O)C2 [(−) EC, (−)epicatechin]	1.2	1.2	–	–	–	–
O=C(O[C@@H]1Cc2c(O)cc(O)cc2O[C@@H]1c1ccc(O)c(O)c1)c1cc(O)c(O)c(O)c1 [(−) ECG, epicatechin gallate]	1.1	1.6	32%	87%	45%	Collagen biosynthesis (pro-collagen; 0.001 μM): 100.5; Collagen biosynthesis (pro-collagen; 0.01 μM): 181.7; Collagen biosynthesis (pro-collagen; 0.1 μM): 165.3; Collagen biosynthesis (pro-collagen; 0.5 μM): 124.5; Collagen biosynthesis (pro-collagen; 2 μM): 77.8
Oc1cc(O)c2c(c1)O[C@H](c1cc(O)c(O)c(O)c1)[C@H](O)C2 [(−) EGC, epigallocatechin]	1.3	1.0	–	–	–	–
Oc1cc(O)c2c(c1)O[C@H](c1cc(O)c(O)c(O)c1)[C@@H](O)C2 [(−) GC, gallocatechin]	1.1	1.0	–	–	–	–
O=C(O[C@@H]1Cc2c(O)cc(O)cc2O[C@H]1c1ccc(O)c(O)c1)c1cc(O)c(O)c(O)c1 [CG, catechin gallate]	1.2	1.6	37%	89%	53%	laminin 10/11 biosynthesis (%) (laminin 10/11): 129%; type VII collagen biosynthesis (%) (type VII collagen): 124%; Collagen biosynthesis (pro-collagen; 0.001 μM): 104.3; Collagen biosynthesis (pro-collagen; 0.01 μM): 118.5; Collagen biosynthesis (pro-collagen; 0.1 μM): 124.9; Collagen biosynthesis (pro-collagen; 0.5 μM): 118.9; Collagen biosynthesis (pro-collagen; 2 μM): 80.3; MMP-2 (%) (MMP-2): 53%; Type IV collagen biosynthesis (%) (type IV collagen): 134%; MMP-9 (%) (MMP-9): 55%
Cn1c(=O)c2c(ncn2C)n(C)c1=O [Caffeine, reference compound]	1.3	1.6	39%	91%	58%	–
O=C(O)c1cc(O)c(O)c(O)c1 [Gallic acid]	1.3	1.7	36%	89%	52%	–
O=c1c(O)c(-c2ccc(O)cc2)oc2cc(O)cc(O)c12 [Kaempferol, kaempferol]	1.7	1.4	41%	94%	48%	–
O=c1c(O)c(-c2cc(O)c(O)c(O)c2)oc2cc(O)cc(O)c12 [Myricetin, myricetin]	1.7	1.6	36%	97%	52%	laminin 10/11 biosynthesis (%) (laminin 10/11): 132%; type VII collagen biosynthesis (%) (type VII collagen): 125%; MMP-2 (%) (MMP-2): 51%; Type IV collagen biosynthesis (%) (type IV collagen): 139%; MMP-9 (%) (MMP-9): 55%
O=c1c(O)c(-c2ccc(O)c(O)c2)oc2cc(O)cc(O)c12 [Quercetin, quercetin]	1.7	2.3	27%	91%	35%	–
O=C(O)[C@]1(O)C[C@@H](O)[C@@H](O)[C@H](O)C1 [Quinic acid]	1.3	1.7	35%	98%	75%	–
CC1=C(/C=C/C(C)=C/C=C/C(C)=C/C(=O)O)C(C)(C)CCC1 [RA, retinoic acid, reference compound]	–	–	–	86%	48%	–
CCNC(=O)CC[C@H](N)C(=O)O [Theanine]	1.8	1.9	30%	95%	60%	Collagen biosynthesis (pro-collagen; 10 μM): 132.1; Collagen biosynthesis (pro-collagen; 100 μM): 167.5
Cn1cnc2c1c(=O)[nH]c(=O)n2C [Theobromine]	2.2	4.5	25%	90%	32%	–
Cn1c(=O)c2[nH]cnc2n(C)c1=O [Theophylline, reference compound]	1.4	1.7	36%	92%	40%	–
Cc1cccc(Nc2cc(Cl)nc(SCC(=O)O)n2)c1C [Wy14643, Wy-14,643, reference compound]	3.8	–	30%	92%	60%	PPAR-α activity ([1]; 0.1 μM): 1.5; PPAR-α activity ([1]; 1 μM): 2.6
